{"source": "paper PMC7156612", "about": "“Olinciguat, an Oral sGC Stimulator, Exhibits Diverse Pharmacology Across Preclinical Models of Cardiovascular, Metabolic, Renal, and Inflammatory Disease” (Frontiers in Pharmacology, 2020)", "key": {"[1]": {"assay": "Quantitative whole-body autoradiography in Long-Evans rats", "format": "in vivo, rat", "details": "single p.o. 3 mg/kg, 14C-derived radioactivity", "experimental": "Quantitative whole-body autoradiography (QWBA) assays were performed at QPS, LLC (Newark, DE) as described previously (Solon et al., 2002). Male Long-Evans (LE) rats (218–262 g, n=11, Hilltop Lab Animals, Inc., Scottdale, PA) were studied. All rats were administered a single p.o. dose of [^14C]-olinciguat at a target dose of 3 mg/kg and approximately 200 µCi/kg formulated in PEG 400 in water (60:40 v/v). Immediately prior to euthanasia, blood was obtained via cardiac puncture for plasma radioactivity determinations by liquid scintillation counting. At each timepoint (1, 2, 4, 8, 12, 24, 48, 72, 96, 168, and 504 h post-dose), one rat was euthanized by immersion in a hexane/solid carbon dioxide bath and frozen for at least 15 min for QWBA analysis. Each frozen rat carcass was embedded in a 2% carboxymethylcellulose matrix with a microtome stage at −20°C. Concentrations of radioactivity were used to determine the concentration of compound equivalents in each tissue and in plasma using the Specific Activity of 66.7 µCi/mg of [^14C]-olinciguat. Whole body sections for each rat were mounted on a cardboard backing, covered with thin plastic wrap, and exposed along with calibration standards of [^14C]-glucose at 10 different concentrations (0.00096 to 7.8 µCi/g) to a ^14C-sensitive phosphor imaging plate (Fuji Biomedical, Stamford, CT). Imaging plates were scanned using the Typhoon 9410 image acquisition system (GE/Molecular Dynamics, Sunnyvale, CA, USA). Radioactivity concentration in tissues was quantified by image densitometry using MCID image analysis software (v. 7.0, Interfocus Imaging Ltd) and a standard curve constructed from the integrated response (molecular dynamics counts/mm^2) and the nominal concentrations of [^14C]-glucose standards. Tissue concentration data were obtained for virtually all tissues (see Supplemental Materials). The concentrations of radioactivity were expressed as the microgram equivalents of [^14C]-olinciguat per gram of sample. An upper and lower limit of quantification, determined by using the radioactive concentration of the highest and lowest calibration standards divided by the specific activity of the test article in formulation, was applied to the data. Phoenix® WinNonLin® v.6.3 was used to determine PK parameters, including maximal concentration (Cmax) and area under the curve of all observed points (AUCall). Tissue:plasma AUCall ratios were determined."}, "[2]": {"assay": "Plasma protein binding (equilibrium dialysis), rat", "format": "in vitro ADME", "details": "both sexes, Sprague Dawley, 1 and 10 μM, equilibrium dialysis 18 h, no gender difference, read-out: bound to plasma proteins", "experimental": "Concentrated (10 mM) DMSO stock solutions of olinciguat were diluted to 1 and 10 μM in 2.5 ml of rat (male and female Sprague Dawley) and human plasma. Concentrated [^14C]-labeled olinciguat (1 μl,1 mCi/ml stock concentration) was spiked into each sample and mixed by vortexing. Triplicate 500 μl aliquots of plasma containing [^14C]-labeled olinciguat were transferred to a Rapid Equilibrium Dialysis system and dialyzed (molecular weight cut-off ~8000 Da) against 500 μl of phosphate-buffered saline (PBS) at room temperature for 18 h. Radioactivity of [^14C]-labeled olinciguat in PBS and plasma samples was measured using liquid scintillation counting."}, "[3]": {"assay": "Rat post-myocardial infarction model", "format": "in vivo", "details": "male, Sprague-Dawley, rat, plasma, oral; MI rats, 30 mg/kg/day in chow; read-out: olinciguat plasma concentration at week 8", "experimental": "(§1) Male Sprague-Dawley rats (n = 24, 270–330 g) were studied. MI was induced by permanent ligation of the left anterior descending (LAD) coronary artery. Briefly, after anesthesia with 5% isoflurane, rats were intubated and ventilated using a small animal ventilator (Model 683, Harvard Apparatus). Surgery was performed under sterile conditions. Briefly, the heart was exposed through left thoracotomy, the pericardium was incised, and the LAD coronary artery was ligated with 4-0 silk suture (Ethicon, Inc.). The lungs were inflated, and the chest wall was closed in three layers. Approximately 100 µl of 0.25% marcaine was applied directly to the edge of the skin incision. Long-acting buprenorphine (1 mg/kg/day, s.c.) was administered after the surgery for postoperative pain relief. Sham-operated rats underwent the same procedure without ligation of the LAD.\n(§2) Treatment was initiated within 24 h following surgery. The Sham and MI control groups were maintained on chow for the entire 8-week treatment period. Rats in the MI + olinciguat group received olinciguat in chow at the targeted dose of 30 mg/kg/day for the entire 8-week treatment period. Ejection fraction (EF) was measured at week 8 by echocardiography using the long axis view of the left ventricle in B-mode.\n(§3) In the post-MI study, data were analyzed by one-way ANOVA, followed by Dunnett's multiple comparison to the MI group."}, "[4]": {"tested_on": "Sprague-Dawley rats with LAD ligation (post-MI)", "assay": "Rat post-myocardial infarction model", "format": "in vivo", "details": "30 mg/kg/day, total plasma concentration x 1.0% free", "experimental": "as §1, §2, §3"}}}
{"compound": "NC(=O)[C@](O)(CNc1nc(-c2cc(-c3ccon3)n(Cc3ccccc3F)n2)ncc1F)C(F)(F)F", "note": "[olinciguat, (R)-3,3,3-trifluoro-2-(((5-fluoro-2-(1-(2-fluorobenzyl)-5-(isoxazol-3-yl)-1H-pyrazol-3-yl)pyrimidin-4-yl)amino)methyl)-2-hydroxypropanamide]", "values": [{"measurement": "AUCall blood-to-plasma ratio", "setting": "[1]", "value": 0.73}, {"measurement": "tissue:plasma AUCall ratio, adrenal gland", "setting": "[1]", "value": 2.41}, {"measurement": "tissue:plasma AUCall ratio, cecum", "setting": "[1]", "value": 4.63}, {"measurement": "tissue:plasma AUCall ratio, esophagus", "setting": "[1]", "value": 2.01}, {"measurement": "tissue:plasma AUCall ratio, kidney cortex", "setting": "[1]", "value": 13.6}, {"measurement": "tissue:plasma AUCall ratio, kidney medulla", "setting": "[1]", "value": 5.14}, {"measurement": "tissue:plasma AUCall ratio, liver", "setting": "[1]", "value": 50.3}, {"measurement": "tissue:plasma AUCall ratio, remaining eight tissues (all four measured regions of the brain, spinal cord, bone, eye lens)", "setting": "[1]", "value": "≤ 0.1"}, {"measurement": "tissue:plasma AUCall ratio, small intestine", "setting": "[1]", "value": 27.5}, {"measurement": "tissue:plasma AUCall ratio, urinary bladder", "setting": "[1]", "value": 2.62}, {"measurement": "tissue:plasma ratio, aorta", "setting": "[1]", "value": 0.92}, {"measurement": "tissue:plasma ratio, brown adipose", "setting": "[1]", "value": 1.16}, {"measurement": "tissue:plasma ratio, heart", "setting": "[1]", "value": 0.84}, {"measurement": "tissue:plasma ratio, lung", "setting": "[1]", "value": 0.86}, {"measurement": "tissue:plasma ratio, skeletal muscle", "setting": "[1]", "value": 0.52}, {"measurement": "tissue:plasma ratio, white adipose", "setting": "[1]", "value": 0.67}, {"measurement": "fraction unbound at 18 h", "setting": "[2]", "value": 0.01}, {"measurement": "concentration at 8 weeks", "setting": "[3]", "value": "0.167 ± 0.011", "unit": "µM"}, {"measurement": "Olinciguat concentration (free)", "setting": "[4]", "value": "1.6–1.8 nM^e"}]}
